Assay results published in patent publication US5998453A, “Oxazolidinone compounds and pharmaceutical preparation containing them” (Schering Aktiengesellschaft, priority 1984, dated 1999).

Tested on: weight increase caused by croton oil
Test: rat ear test according to Tonelli (croton oil), topical anti-inflammatory activity
Format: in vivo, Wistar rats
Conditions: 5 hours after treatment

SMILES | ED50
CCCCOc1ccc(CC(=O)NO)cc1 [Compound 1, Bufexamac] | 15 mg/kg
O=C(O)COc1nn(Cc2ccccc2)c2ccccc12 [Compound 2, Bendazac] | 15 mg/kg
CCCC(=O)OC1(C(=O)CO)CCC2C3CCC4=CC(=O)CCC4(C)C3C(O)CC21C (stereo not drawn) [Compound 3, Hydrocortisone 17-butyrate] | 0.5 mg/kg
COc1ccc(C2CNC(=O)C2)cc1OC1CCCC1 (stereo not drawn) [Compound 4, 4-(3-Cyclopentyloxy-4-methoxyphenyl)-2-pyrrolidone] | 0.6 mg/kg
COc1ccc(C2CNC(=O)C2)cc1OC1CCOC1 (stereo not drawn) [Compound 5, 4-[4-Methoxy-3-(3-tetrahydrofuryloxy)phenyl]-2-pyrrolidone] | 0.2 mg/kg
COc1ccc(C2CNC(=O)C2)cc1OCC(C)C (stereo not drawn) [Compound 6, 4-(3-Isobutoxy-4-nmethoxypheny1)-2-pyrrolidone] | 1.1 mg/kg
